Data taken from EP0392976A1, “Monoclonal antibodies to tetracyclic compounds, processes for their production, and applications” (CIBA-GEIGY AG, priority 1989, dated 1990).
Structures can show the parent of a compound that is named as a salt. Where two headings read alike, the source gives them in different places.

Tests used:
Experiment in all cases: inhibition enzyme immunoassay: inhibition of MAb binding to surface bound R-(-)-oxaprotiline-mucin conjugate
Design in all cases: species or system mouse
MAb 1225S93.2 = conditions: for IC50: read-out: IC₅₀
Description: (§1) The affinities of the monoclonal antibodies of the invention to R-(-)-oxaprotiline can for example be determined in an inhibition enzyme immunoassay according to Friguet et al. (J. Immunol. Methods 77, 305, 1985) wherein the monoclonal antibody to be tested is preincubated with R-(-)-oxaprotiline and, in a second step, exposed to a solid phase coated with an adsorbable conjugate of R-(-)-oxaprotiline, e.g. a protein conjugate. The fraction of the monoclonal antibody not engaged in immunocomplexes binds to the solid phase and is quantified by a secondary antibody-enzyme conjugate directed against the monoclonal antibody. The affinities are expressed as IC₅₀ (inhibition concentration) values, i.e. the concentration of free antigen causing a 50 % inhibition of antibody binding to the solid phase antigen.
(§2) This can be done, for example, in an inhibition enzyme immunoassay wherein the monoclonal antibodies of the invention are preincubated with any of the soluble compounds listed above and the incubation mixture is then tested in the enzyme immunoassay described above.
(§3) The conjugate solution (0.66 mg/ml) is diluted 1000-fold in coating buffer pH 9.8 (477 mg sodium carbonate, 897 mg sodium hydrogen carbonate, 60 mg sodium azide, 300 ml distilled water) and incubated in the wells of a microtitre plate for 2 days at 4°C. The wells are washed three times with PBS containing Tween 20 (Sigma, 0.1 %). Residual adsorption sites on the plate are saturated by incubation with 100 µl of PBS/Tween 20 for 1 h. 100 µl of a solution to be tested for the presence of antibodies to R-(-)-oxaprotiline are incubated in the wells for 1 h at room temperature. After washing three times with PBS/Tween 20, an alkaline phosphatase conjugated anti-mouse IgG antiserum (Sigma) is added in a 1000-fold dilution for 1 h at 37°C. The microtitre plate is washed five times with PBS/Tween 20, and the enzyme-conjugated bound antiserum developed with an alkaline phosphatase substrate consisting of disodium p-nitrophenylphosphate (1 mg/ml; Sigma) in diethanolamine buffer pH 9.8. The substrate gives a yellow coloration which is measured with a colorimeter (Titertek Multiskan) at a wave length of 405 nm after 60 min.
(§4) The assay is carried out as described in the following.
(§5) The capacity of free R-(-)-oxaprotiline and of a number of compounds which are structurally analogous to R-(-)-oxaprotiline to inhibit the binding of the monoclonal antibodies of the invention to the antigen is determined in an inhibition enzyme immunoassay essentially as described in example 3.2. The MAbs are preincubated with free R-(-)-oxaprotiline and with various structural analogues, respectively, instead of with the test compounds of example 3.2.

MAb 1228P63.1 = conditions: for IC50: read-out: IC₅₀
Description: as §1, §2, §3, §4, §5

MAb 1219S59.11 = conditions: for IC50: read-out: IC₅₀
Description: as §1, §2, §3, §4, §5

MAb 1219S78.6 = conditions: for IC50: MAb 1219S78.6, read-out: IC₅₀
Description: as §1, §2, §3, §4, §5

MAb 1226S31.3 = conditions: for IC50: MAb 1226S31.3, read-out: IC₅₀
Description: as §1, §2, §3
The capacity of a number of therapeutic drugs some of which are used in combination with antidepressants and of biogenic amines to inhibit the binding of the monoclonal antibodies of the invention to the antigen is determined in a two-step inhibition enzyme immunoassay to establish the selectivity of the monoclonal antibodies to the tested compounds.
as §4, §5

Row | Structure (SMILES) | rel. affinity (MAb 1225S93.2; MAb 1225S93.2, derived from IC50, compound 1 = 1) | rel. affinity (MAb 1228P63.1; MAb 1228P63.1, derived from IC50, compound 1 = 1) | rel. affinity (MAb 1219S59.11; MAb 1219S59.11, derived from IC50, compound 1 = 1) | rel. affinity (MAb 1225S93.2) | IC50 (MAb 1225S93.2; MAb 1225S93.2) [nM] | rel. affinity (MAb 1228P63.1) | IC50 (MAb 1228P63.1; MAb 1228P63.1) [nM] | IC50 relative to reference compound (fold) (MAb 1219S78.6) | IC50 (MAb 1219S78.6) [nM] | rel. affinity (MAb 1219S59.11) | IC50 (MAb 1219S59.11; MAb 1219S59.11) [nM] | rel. affinity (MAb 1226S31.3) | IC50 (MAb 1226S31.3) [nM]
1 | CNCCCC12CCC(c3ccccc31)c1ccccc12 [compound 6, 1-(3-methylamino-propyl)-dibenzo[b,e]-bicyclo[2.2.2]-octadiene-hydro-chloride] | 1.2 | 1.4 | 8.8 | – | – | – | – | – | – | – | – | – | –
2 | NCC(O)CC12CCC(c3ccccc31)c1ccccc12 (stereo not shown) [compound 7, 1-(3-amino-2-hydroxy-propyl)-dibenzo[b,e]-bicyclo[2.2.2]-octadiene-hydro-chloride] | – | – | – | 2.0 | 0.75 | 2.2 | 1.65 | 249.2 | 76 | 368.9 | 107 | 0.4 | 2.38
3 | CNCC(CC12CCC(c3ccccc31)c1ccccc12)OC(C)=O (stereo not shown) [compound 11, 1-(2-acetoxy-3-methyl-amino-propyl)-dibenzo[b,e]bicyclo-[2.2.2]octadiene-hydrochloride-semi-hydrate] | – | – | – | 1.9 | 0.715 | 4.5 | 3.35 | 3.3 | 1 | 4.5 | 1.3 | 0.5 | 3.58
4 | c1ccc2c(c1)C1CCC2(CC2CNCCO2)c2ccccc21 (stereo not shown) [compound 12, 2-(dibenzo[b,e]bicyclo-[2.2.2]octadienyl-1-methyl)-morpholine-hydrochloride] | – | – | – | 6.4 | 2.35 | 3.1 | 2.35 | ∼49.2 | ~15 | 174.1 | 50.5 | 0.3 | 2.1
5 | CN1COC(CC23CCC(c4ccccc42)c2ccccc23)C1 (stereo not shown) [compound 13, 3-methyl-5-(dibenzo-[b,e]bicyclo[2.2.2]-octadienyl-1-methyl)-oxazolidine-methane-sulfonate] | – | – | – | 1.6 | 0.58 | 1.6 | 1.2 | 1.6 | 0.48 | 1.9 | 0.55 | 0.7 | 4.45
6 | CN(C)CC(O)CC12CCC(c3ccccc31)c1ccc(Cl)cc12 (stereo not shown) [compound 15, 1-(2-hydroxy-3-dimethylamino-propyl]-10-chlorodibenzo[b,e]-bicyclo[2.2.2]-octadiene-cyclamate] | – | – | – | 74.3 | 27.5 | 16.7 | 12.5 | 170.5 | 52 | 124.1 | 36 | 7.5 | 50
7 | CNCC(O)CC12CCC(c3ccccc31)c1ccc(C(F)(F)F)cc12 (stereo not shown) [compound 16] | – | – | – | 251.4 | 93 | >1667 | > 1250 | >3279 | > 1000 | >3448 | > 1000 | >149 | > 1000
8 | CN(C)CC(O)CC12CCC(c3ccccc31)c1ccc(C(F)(F)F)cc12 (stereo not shown) [compound 17] | – | – | – | 628.4 | 232 | >1667 | > 1250 | >3279 | > 1000 | >3448 | > 1000 | >149 | > 1000
